Measurements as given in paper PMC10145973, “Genomic Insights into Bacterial Resistance to Proline-Rich Antimicrobial Peptide Bac7” (Membranes, 2023).
In brackets after ≈: the same amount, converted by molar mass. Several values for one entry are separate records, joined by “and”; a condition that tells them apart may be missing. Equal values may be shown once. Read-outs that look alike come from different tables or passages of the source. Marks after values point to notes of the source that are not given here. Where a SMILES comes first, the peptide text is derived from it. Bridges are numbered along the chain shown (N, C = ends). [ ]: non-standard residue; d: D form. The star is where a group is joined. X1 = CC[C@H](C)CCCCC(=O)*; Dab = NCC[C@H](N)C(=O)O

Key:
E. coli MDR 1057 P1 = conditions: Table 2, broth microdilution in MHB (medium ±0.9% NaCl not given), 0.1% BSA, 24 h, 37 °C, median of at least three independent experiments in triplicate
E. coli MDR 1057 B1 = conditions: Fig. 3C, 24 h, 37 °C
[1] = system: E. coli BW25113 ΔsbmA (sbmA::kan, JW0368); experiment: MIC, broth microdilution, sbmA knockout; type: cell-based, Escherichia coli; conditions: Fig. 3C, 24 h, 37 °C
[2] = system: E. coli BW25113 ΔwaaP (waaP::kan, JW3605); experiment: MIC, broth microdilution, waaP knockout; type: cell-based, Escherichia coli; conditions: 24 h, 37 °C
E. coli BW25113 WT = experiment: MIC, broth microdilution, BW25113; type: cell-based, Escherichia coli; conditions: 24 h, 37 °C
E. coli MDR 1057 B2 = conditions: 24 h, 37 °C; for Minimum Inhibitory Concentration, B2: Table 2, broth microdilution in MHB (medium ±0.9% NaCl not given), 0.1% BSA, median of at least three independent experiments in triplicate
E. coli MDR 1057 B3 = conditions: 24 h, 37 °C; for Minimum Inhibitory Concentration, B3: Table 2, broth microdilution in MHB (medium ±0.9% NaCl not given), 0.1% BSA, median of at least three independent experiments in triplicate
E. coli MDR 1057 WT = conditions: 24 h, 37 °C; for Minimum Inhibitory Concentration, WT: Table 2, broth microdilution in MHB (medium ±0.9% NaCl not given), 10^6 CFU/mL suspension, agents diluted in 0.1% BSA, visible turbidity, median of at least three independent experiments in triplicate
[3] = system: E. coli BW25113 ΔwaaP (pBAD-WaaP^N159H); conditions: complementation in BW25113 ΔwaaP, 0.1 g/L arabinose
[4] = system: resistant Salmonella enterica strain (pmrB mutations); conditions: listed as PmxB; cited from earlier work
[5] = system: extensively drug-resistant Klebsiella pneumoniae isolate; set-up: method as in PMID 30445429; conditions: serially passaged in the presence of the agent; cited from earlier work
Mycobacterium phlei = system: Mycobacterium phlei; set-up: method as in PMID 35629841; conditions: cited from earlier work
[6] = system: Mycobacterium smegmatis mc(2)155; experiment: MIC against Mycobacterium smegmatis (unpublished data); type: cell-based; conditions: authors' unpublished data
[7] = system: septic shock-modelled rats; set-up: method as in PMID 12785015; conditions: comparable with polymyxin B; cited from earlier work
M. tuberculosis H37Rv = conditions: cited from earlier work
[8] = Fig. 3C and text, MHB +0.9% NaCl
[9] = selection in MHB without 0.9% NaCl

CC[C@H](C)[C@H](NC(=O)[C@H](CCCNC(=N)N)NC(=O)[C@@H](N)CCCNC(=N)N)C(=O)N[C@@H](CCCNC(=N)N)C(=O)N1CCC[C@H]1C(=O)N[C@@H](CCCNC(=N)N)C(=O)N1CCC[C@H]1C(=O)N1CCC[C@H]1C(=O)N[C@@H](CCCNC(=N)N)C(=O)N[C@@H](CC(C)C)C(=O)N1CCC[C@H]1C(=O)N[C@@H](CCCNC(=N)N)C(=O)N1CCC[C@H]1C(=O)N[C@@H](CCCNC(=N)N)C(=O)N1CCC[C@H]1C(=O)N[C@@H](CCCNC(=N)N)C(=O)N1CCC[C@H]1C(=O)N[C@@H](CC(C)C)C(=O)N1CCC[C@H]1C(=O)N[C@@H](Cc1ccccc1)C(=O)N1CCC[C@H]1C(=O)N[C@@H](CCCNC(=N)N)C(=O)O [Bac7_1-22] (H-RRIRPRPPRLPRPRPRPLPFPR-OH)
Minimum Inhibitory Concentration, P1 (E. coli MDR 1057 P1): 16 * µM
MIC, MHB +0.9% NaCl (E. coli MDR 1057 B1; MHB +0.9% NaCl): 32 µM (≈ 89.1 µg/mL)
MIC, MHB (E. coli MDR 1057 B1; salt-free MHB): 1 µM
MIC, MHB +0.9% NaCl ([1]; MHB +0.9% NaCl): 16 µM (≈ 44.6 µg/mL)
MIC, MHB ([1]; salt-free MHB): 1 µM
MIC, MHB +0.9% NaCl [2, 8]: 1 µM (≈ 2.78 µg/mL)
MIC, MHB ([2]; Fig. 3C, salt-free MHB): 2 µM
MIC, MHB +0.9% NaCl (E. coli BW25113 WT; [8]): 1 µM (≈ 2.78 µg/mL)
MIC, MHB (E. coli BW25113 WT; Fig. 3C, salt-free MHB): 2 µM
increases in MIC values after initial 3-4 passages (E. coli MDR 1057 strain; selection in MHB + 0.9% NaCl, strains B1 and B2): ≥ 32 fold
increase in MICs after 4 weeks of selection, strain B3 (E. coli MDR 1057 strain; [9]): 32 fold
increase in MICs after 4 weeks of selection, strain B4 (E. coli MDR 1057 strain; [9]): 4 fold
increase in minimal inhibitory concentrations (MICs), three resistant strains (E. coli MDR 1057 strain; serial passaging, four-week experimental evolution (abstract)): ≥ 16 fold
MIC, MHB +0.9% NaCl (E. coli MDR 1057 B2; Fig. 3C, MDR 1057 B2, MHB +0.9% NaCl): 32 µM (≈ 89.1 µg/mL)
MIC, MHB (E. coli MDR 1057 B2; Fig. 3C, MDR 1057 B2, salt-free MHB): 1 µM
Minimum Inhibitory Concentration, B2 (E. coli MDR 1057 B2): >32 µM
MIC, MHB +0.9% NaCl (E. coli MDR 1057 B3; Fig. 3C and text, MDR 1057 B3, MHB +0.9% NaCl): 32−64 μM
MIC, MHB (E. coli MDR 1057 B3; Fig. 3C and text, MDR 1057 B3, salt-free MHB): 32 µM
Minimum Inhibitory Concentration, B3 (E. coli MDR 1057 B3): >32 µM
MIC, MHB +0.9% NaCl (E. coli MDR 1057 WT; Fig. 3C, MDR 1057 WT, MHB +0.9% NaCl, median of ≥3 experiments): 2 µM (≈ 5.57 µg/mL)
MIC, MHB (E. coli MDR 1057 WT; Fig. 3C, MDR 1057 WT, salt-free MHB, median of ≥3 experiments): 1−2 μM
increase in MICs for the strain expressing waaP^N159H as compared with the wild-type variant [3]: 4–8 fold

CC[C@H](C)CCCCC(=O)N[C@@H](CCN)C(=O)N[C@H](C(=O)N[C@@H](CCN)C(=O)N[C@H]1CCNC(=O)[C@H]([C@@H](C)O)NC(=O)[C@H](CCN)NC(=O)[C@H](CCN)NC(=O)[C@H](CC(C)C)NC(=O)[C@@H](Cc2ccccc2)NC(=O)[C@H](CCN)NC1=O)[C@@H](C)O [Polymyxin B] (X1-[Dab]T[Dab][Dab][Dab][dF]L[Dab][Dab]T; lactam 4-C (inferred); N-terminus assumed)
Minimum Inhibitory Concentration, P1 (E. coli MDR 1057 P1; listed as PmxB): > 128 µM
MIC after a single pmrB mutation [4]: up to 3 µg/mL and ≤ 4 µM
final MIC relative to initial MIC, the P2 strain (E. coli MDR 1057 strain; PmxB selection): 32 × MIC
final MIC relative to initial MIC, the P1 strain (E. coli MDR 1057 strain; PmxB selection, MHB + 0.9% NaCl, 25 passages): 2048 × MIC
final MIC value, the P1 strain (E. coli MDR 1057 strain; PmxB selection, MHB + 0.9% NaCl, 25 passages, then three passages on drug-free agar): 128 µM
final MIC value, the P2 strain (E. coli MDR 1057 strain; PmxB selection, after final passage and three passages on drug-free agar): 2 µM
MIC at start of the selection experiment (E. coli MDR 1057 strain; both repetitions (P1 and P2), before selection): 0.0625 µM
Minimum Inhibitory Concentration, B2 (E. coli MDR 1057 B2): 0.125 µM
Minimum Inhibitory Concentration, B3 (E. coli MDR 1057 B3): 8 µM
Minimum Inhibitory Concentration, WT (E. coli MDR 1057 WT): 0.125 µM
increase in MIC after serial passage [5]: ≥ 1000 fold

CC[C@H](C)[C@H](NC(=O)[C@H](CCCNC(=N)N)NC(=O)[C@@H](N)CCCNC(=N)N)C(=O)N[C@@H](CCCNC(=N)N)C(=O)N[C@@H](CCCNC(=N)N)C(=O)N1CCC[C@H]1C(=O)N[C@@H](CCCNC(=N)N)C(=O)N[C@@H](CC(C)C)C(=O)N1CCC[C@H]1C(=O)N[C@@H](CCCNC(=N)N)C(=O)N1CCC[C@H]1C(=O)N[C@@H](CCCNC(=N)N)C(=O)N[C@H](C(=O)N1CCC[C@H]1C(=O)N[C@@H](CCCNC(=N)N)C(=O)N1CCC[C@H]1C(=O)N[C@@H](CCCNC(=N)N)C(=O)N[C@H](C(=O)N1CCC[C@H]1C(=O)N1CCC[C@H]1C(=O)N[C@@H](CCCNC(=N)N)C(=O)N[C@H](C(=O)N1CCC[C@H]1C(=O)N[C@@H](CCCNC(=N)N)C(=O)N1CCC[C@H]1C(=O)N[C@H](C(=O)N[C@@H](CC(C)C)C(=O)N1CCC[C@H]1C(=O)N1CCC[C@H]1C(=O)N1CCC[C@H]1C(=O)N[C@@H](CCCNC(=N)N)C(=O)N[C@H](C(=O)N1CCC[C@H]1C(=O)N[C@@H](Cc1ccccc1)C(=O)N1CCC[C@H]1C(=O)N[C@@H](CCCNC(=N)N)C(=O)N[C@@H](Cc1ccccc1)C(=O)N1CCC[C@H]1C(=O)N[C@@H](CCCNC(=N)N)C(N)=O)C(C)C)C(C)C)[C@@H](C)CC)[C@@H](C)CC)C(C)C [VicBac] (H-RRIRRPRLPRPRVPRPRIPPRIPRPVLPPPRVPFPRFPR-NH2; N-terminus assumed)
Minimum Inhibitory Concentration, P1 (E. coli MDR 1057 P1): 4 µM
MIC (Mycobacterium phlei): 0.5 to 1 µM
MIC [6]: 0.5 to 1 µM
Minimum Inhibitory Concentration, B2 (E. coli MDR 1057 B2): 2 µM
Minimum Inhibitory Concentration, B3 (E. coli MDR 1057 B3): 2 µM
Minimum Inhibitory Concentration, WT (E. coli MDR 1057 WT): 1 µM

Bac7_1-35: Bac7 fragment 1-35 (RRIRPRPPRLPRPRPRPLPFPRPGPRPIPRPLPFP; Bactenecin-7; UniProt P19661 131-165, looked up, fragment)
plasma LPS levels and lethality rates [7]: significant decrease

PR-39
concentration inhibiting growth (M. tuberculosis H37Rv): about 10 µM
